# Data taken from patent publication US11318137B2, “Quinazoline compounds as modulators of Ras signaling” (VANDERBILT UNIVERSITY, priority 2017, dated 2022).
# Assays:
# [1] = biological target: T1, Son of Sevenless (SOS) (Homo sapiens, UniProt Q07889); experiment: Binding to SOS, fluorescence polarization anisotropy (FPA) displacement of FITC-conjugated probe; details: binding affinity calculated from IC50 of FITC-probe displacement, read-out: Binding affinities (binding affinity to SOS)
# T1 sequence (Q07889 564-1049 limits assumed): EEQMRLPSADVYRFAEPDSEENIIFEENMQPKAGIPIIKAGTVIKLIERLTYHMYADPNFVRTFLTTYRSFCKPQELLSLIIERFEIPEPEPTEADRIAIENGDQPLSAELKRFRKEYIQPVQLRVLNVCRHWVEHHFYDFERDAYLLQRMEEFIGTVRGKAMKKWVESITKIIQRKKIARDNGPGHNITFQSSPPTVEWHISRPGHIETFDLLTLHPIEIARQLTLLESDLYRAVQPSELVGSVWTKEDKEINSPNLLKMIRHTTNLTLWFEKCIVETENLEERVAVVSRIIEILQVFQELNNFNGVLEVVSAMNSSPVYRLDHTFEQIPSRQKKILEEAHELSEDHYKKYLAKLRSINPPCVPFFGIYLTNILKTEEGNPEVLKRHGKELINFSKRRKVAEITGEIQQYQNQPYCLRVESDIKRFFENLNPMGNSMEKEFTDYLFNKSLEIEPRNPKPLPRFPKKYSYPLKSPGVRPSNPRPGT
# Method: Compounds of the present invention were tested for their ability to the Ras guanine exchange factor (GEF) Son of Sevenless (SOS). Binding to SOS was measured using a Fluorescence polarization anisotropy (FPA) assay that assesses the ability of a test compound to displace a fluorescent FITC-conjugated compound. Briefly, the labeled probe compound is incubated with SOS in buffer. Changes in anisotropy indicative of displacement of the labeled probe for a test compound are assessed over a dose range of test compound. Data was analyzed by plotting fluorescence anisotropy values as a function of compound concentration. IC50 values were determined using a four-parameter dose-response (variable slope) and binding affinities were calculated from this IC50 value. This assay is performed in a method analogous to the assay disclosed in: Burns, M. C.; Sun, Q.; Daniels, R. N.; Camper, D. V.; Kennedy, J. P.; Phan, J.; Olejniczak, E. O.; Lee, T.; Waterson, A. G.; Rossanese, O. W.; Fesik, S. W. “Approach for targeting Ras with small molecules that activate SOS-mediated nucleotide exchange” Proc. Natl. Acad. Sci. 2014; 11(9): 3401-3406. PMCID: PMC3948241.
# [2] = biological target: T2, SOS-mediated nucleotide exchange on Ras (Homo sapiens, UniProt Q07889); experiment: SOS-mediated nucleotide exchange on Ras (BODIPY-GDP fluorescence); type: biochemical; details: Ras loaded with BODIPY-GDP, GTP and SOS added; EC50 from derived exchange rates
# T2 sequence (Q07889 1-1333): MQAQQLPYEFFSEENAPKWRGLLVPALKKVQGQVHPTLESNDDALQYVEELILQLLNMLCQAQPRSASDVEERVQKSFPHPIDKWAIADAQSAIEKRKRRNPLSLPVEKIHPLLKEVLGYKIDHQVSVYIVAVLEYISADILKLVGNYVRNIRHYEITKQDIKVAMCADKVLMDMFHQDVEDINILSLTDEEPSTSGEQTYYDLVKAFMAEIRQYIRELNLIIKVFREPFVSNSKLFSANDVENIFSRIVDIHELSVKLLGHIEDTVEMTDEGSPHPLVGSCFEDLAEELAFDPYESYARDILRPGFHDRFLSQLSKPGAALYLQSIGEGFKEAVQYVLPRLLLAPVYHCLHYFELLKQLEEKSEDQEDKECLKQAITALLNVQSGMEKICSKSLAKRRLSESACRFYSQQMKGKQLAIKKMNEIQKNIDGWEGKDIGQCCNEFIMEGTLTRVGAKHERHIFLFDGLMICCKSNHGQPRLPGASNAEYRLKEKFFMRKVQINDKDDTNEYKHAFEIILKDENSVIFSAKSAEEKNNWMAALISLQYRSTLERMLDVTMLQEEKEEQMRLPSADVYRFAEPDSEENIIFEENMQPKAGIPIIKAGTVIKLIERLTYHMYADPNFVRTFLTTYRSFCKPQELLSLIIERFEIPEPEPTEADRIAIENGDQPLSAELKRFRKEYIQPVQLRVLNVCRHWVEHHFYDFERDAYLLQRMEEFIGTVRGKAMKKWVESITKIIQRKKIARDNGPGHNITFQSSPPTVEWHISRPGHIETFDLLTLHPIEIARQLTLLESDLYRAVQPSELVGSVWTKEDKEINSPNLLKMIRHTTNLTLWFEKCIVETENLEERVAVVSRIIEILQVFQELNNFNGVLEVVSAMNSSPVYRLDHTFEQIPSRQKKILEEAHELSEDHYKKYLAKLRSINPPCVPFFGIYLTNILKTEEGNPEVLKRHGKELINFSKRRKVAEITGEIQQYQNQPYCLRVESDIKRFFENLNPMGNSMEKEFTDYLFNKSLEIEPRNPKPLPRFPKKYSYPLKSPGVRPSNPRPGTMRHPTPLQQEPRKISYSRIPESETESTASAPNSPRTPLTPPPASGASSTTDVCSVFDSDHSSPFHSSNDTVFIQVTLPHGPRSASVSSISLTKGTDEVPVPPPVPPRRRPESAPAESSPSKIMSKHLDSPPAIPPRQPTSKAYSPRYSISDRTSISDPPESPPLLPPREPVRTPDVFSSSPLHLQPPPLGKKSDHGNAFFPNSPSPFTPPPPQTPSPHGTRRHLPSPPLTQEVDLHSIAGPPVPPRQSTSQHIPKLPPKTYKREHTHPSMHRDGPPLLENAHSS
# Method: A. SOS-Mediated Nucleotide Exchange on Ras
# Compounds of the present invention were tested for their ability to modify the rate at which Ras exchanges a labeled nucleotide guanosine diphosphate (GDP) analog for guanosine triphosphate (GTP). Briefly, test compounds, then GTP and the Ras GEF SOS (Son of Sevenless) are added to a buffered solution containing Ras protein loaded with BODIPY-GDP. Changes in fluorescence indicating exchange of the labeled GDP for GTP are monitored over time. Raw fluorescence data was fit to a single exponential decay function and derived rates were plotted as mean values. EC50 values were calculated by plotting mean derived rates as a function of compound concentration and fit using a four-parameter dose-response curve. Full assay details are disclosed in: Burns, M. C.; Sun, Q.; Daniels, R. N.; Camper, D. V.; Kennedy, J. P.; Phan, J.; Olejniczak, E. O.; Lee, T.; Waterson, A. G.; Rossanese, O. W.; Fesik, S. W. “Approach for targeting Ras with small molecules that activate SOS-mediated nucleotide exchange” Proc. Natl. Acad. Sci. 2014; 11(9): 3401-3406. PMCID: PMC3948241.
Structure (SMILES),Ki [1] [µM],EC50 [2] [µM]
"C[C@@H](Nc1nc(Nc2ccc(F)c(Cl)c2)nc2c(NCCN(C)C)cccc12)C1CC1 [Example 67, (R)—N^2-(3-chloro-4-fluorophenyl)-N^4-(1-cyclopropylethyl)-N8-(2-(dimethylamino)ethyl)quinazoline-2,4,8-triamine]",> 5,5 to 30
"C[C@@H](Nc1nc(Nc2ccc(F)c(Cl)c2)nc2c(CN)cccc12)C1CC1 [Example 56, (R)-8-(aminomethyl)-N^2-(3-chloro-4-fluorophenyl)-N^4-(1-cyclopropylethyl)quinazoline-2,4-diamine]",> 5,1 to 5
"C[C@@H](Nc1nc(Nc2ccc(F)c(Cl)c2)nc2c(C#N)cccc12)C1CC1 [Example 55, (R)-2-((3-chloro-4-fluorophenyl)amino)-4-((1-cycloprprpylethyl)amino)quinazoline-8-carbonitrile]",> 5,> 30
"C[C@@H](Nc1nc(NCC2CCCCC2)nc2c(C3=CCNCC3)cccc12)C(C)(C)C [Example 81, (R)—N^2-(cyclohexylmethyl)-N^4-(3,3-dimethylbutan-2-yl)-8-(1,2,3,6-tetrahydropyridin-4-yl)quinazoline-2,4-diamine]",> 5,1 to 5
"C[C@@H](Nc1nc(Nc2ccc(F)c(Cl)c2)nc2c(CCN)cccc12)C1CC1 [Example 60, (R)-8-(2-aminoethyl)-N^2-(3-chloro-4-fluorophenyl)-N^4-(1-cyclopropylethyl)quinazoline-2,4-diamine]",1 to 5,1 to 5
"C[C@@H](Nc1nc(Nc2ccc(F)c(Cl)c2)nc2c(NCCN)cccc12)C1CC1 [Example 65, (R)—N^8-(2-aminoethyl)-N^2-(3-chloro-4-fluorophenyl)-N^4-(1-cyclopropylethyl)quinazoline-2,4,8-triamine]",> 5,5 to 30
"CCC(Nc1nc(Nc2ccc(F)c(Cl)c2)nc2ccccc12)C(C)C (centres unmarked) [Example 2, N^2-(3-chloro-4-fluorophenyl)-N^4-(2-methylpentan-3-yl)quinazoline-2,4-diamine]",> 5,1 to 5
"COc1cccc(CNc2nc(N[C@H](C)C3CC3)c3ccccc3n2)c1 [Example 27, (R)—N^4-(1-cyclopropylethyl)-N^2-(3-methoxybenzyl)quinazoline-2,4-diamine]",> 5,5 to 30
"C[C@@H](Nc1nc(Nc2ccc(F)c(Cl)c2)nc2c(NCCCN)cccc12)C1CC1 [Example 66, (R)—N^8-(3-aminopropyl)-N^2-(3-chloro-4-fluorophenyl)-N^4-(1-cyclopropylethyl)quinazoline-2,4,8-triamine]",> 5,5 to 30
"NCCc1cccc2c(NC(C3CC3)C3CC3)nc(NCC3CCCCC3)nc12 [Example 74, 8-(2-aminoethyl)-N^2-(cyclohexylmethyl)-N^4-(dicyclopropylmethyl)quinazoline-2,4-diamine]",1 to 5,1 to 5
"Clc1cc(Cl)cc(Nc2nc(NCc3cccs3)c3ccccc3n2)c1 [Example 9, N^2-(3,5-dichlorophenyl)-N^4-(thiophen-2-ylmethyl)quinazoline-2,4-diamine]",> 5,< 1

# Other lines, results leading:
Ki [1] [µM],EC50 [2] [µM],Structure (SMILES)
< 1,5 to 30,"C[C@@H](Nc1nc(NCC2CCCCC2)nc2c(CCN)cccc12)c1cccs1 [Example 93, (R)-8-(2-aminoethyl)-N^2-(cyclohexylmethyl)-N^4-(1-(thiophen-2-yl)ethyl)quinazoline-2,4-diamine]"
< 1,1 to 5,"CC[C@@H](Nc1nc(Nc2cc(C)cc(F)c2)nc2c(C3=CCNCC3)cccc12)C1CC1 [Example 126, (R)—N^4-(1-cyclopropylpropyl)-N^2-(3-fluoro-5-methylphenyl)-8-(1,2,3,6-tetrahydropyridin-4-yl)quinazoline-2,4-diamine]"
1 to 5,5 to 30,"C[C@@H](Nc1nc(Nc2ccc(F)c(Cl)c2)nc2c(CN)cccc12)c1cccs1 [Example 132, (R)-8-(aminomethyl)-N^2-(3-chloro-4-fluorophenyl)-N^4-(1-(thiophen-2-yl)ethyl)quinazoline-2,4-diamine]"
1 to 5,1 to 5,"Cc1cc(F)cc(Nc2nc(N[C@H](C)C3CC3)c3cccc(C4=CCNCC4)c3n2)c1 [Example 107, (R)—N^4-(1-cyclopropylethyl)-N^2-(3-fluoro-5-methylphenyl)-8-(1,2,3,6-tetrahydropyridin-4-yl)quinazoline-2,4-diamine]"
> 5,5 to 30,"Cc1cc(F)cc(Nc2nc(N[C@H](C)c3cccs3)c3cccc(CN)c3n2)c1 [Example 95, (R)-8-(aminomethyl)-N^2-(3-fluoro-5-methylphenyl)-N^4-(1-(thiophen-2-yl)ethyl)quinazoline-2,4-diamine]"
1 to 5,1 to 5,"C[C@@H](Nc1nc(NCC2CCCCC2)nc2c(C3=CCN(C)CC3)cccc12)C1CC1 [Example 121, (R)—N^2-(cyclohexylmethyl)-N^4-(1-cyclopropylethyl)-8-(1-methyl-1,2,3,6-tetrahydropyridin-4-yl)quinazoline-2,4-diamine]"
> 5,> 30,"C[C@@H](Nc1nc(Nc2ccc(F)c(Cl)c2)nc2c(C3=CCOCC3)cccc12)C1CC1 [Example 122, (R)—N^2-(3-chloro-4-fluorophenyl)-N^4-(1-cyclopropylethyl)-8-(3,6-dihydro-2H-pyran-4-yl)quinazoline-2,4-diamine]"
> 5,5 to 30,"C[C@@H](Nc1nc(NCc2cccc(Cl)c2F)nc2c(CN)cccc12)C(C)(C)C [Example 87, (R)-8-(aminomethyl)-N^2-(3-chloro-2-fluorobenzyl)-N^4-(3,3-dimethylbutan-2-yl)quinazoline-2,4-diamine]"
